Assay results published in PMC8287944, “5-Fluorouracil blocks quorum-sensing of biofilm-embedded methicillin-resistant Staphylococcus aureus in mice” (Nucleic Acids Research, 2021).

Columns and labels:
[1] = tested on: AI-2 production by HEK-293AI2 cells expressing MTAN and LuxS; parameters: method as in PMID 29739943; details: earlier proof-of-concept study; cited from earlier work
MRSA ATCC 43300 [2] = tested on: MRSA ATCC 43300; parameters: method as in PMID 21576433; details: implant-associated MRSA infection model; cited from earlier work
MRSA ATCC 43300 [3] = test: Murine tissue cage (foreign-body) infection model, prophylaxis; format: in vivo, Staphylococcus aureus; details: C57BL/6 mice; for Effect on biofilm / adherent MRSA / Effect on planktonic MRSA infection: prophylactic treatment; for Effect on biofilm / adherent MRSA: explanted cages 2 days post-infection; for Effect on planktonic MRSA infection: tissue cage fluid 2 days post-infection
Procedure: To evaluate the prophylactic efficacy of 5-FU against MRSA infection, we used our murine model of foreign-body infection, which closely mimics human implant-associated infections. This model of foreign-body infection ([26],[27]) was established with the approval of the Kantonale Veterinaeramt Basel-Stadt, Switzerland (permit no. 1710). Experiments were conducted according to the regulations of Swiss veterinary law and performed in the animal house of the Department of Biomedicine, University Hospital Basel, Switzerland. Healthy wild-type female C57BL/6 mice at 13 weeks of age (JanvierLabs, France) kept under specific pathogen-free conditions (biosafety level 2) were anesthetized, followed by the subcutaneous implantation of sterile cylindrical Teflon tissue cages (8.5 × 1 × 30 mm; volume: 1.9 ml) with 130 regularly spaced holes (Angst + Pfister AG, Zurich, Switzerland). They were housed in a 12 hr light/dark cycle (light from 7 am to 7 pm) in a temperature-controlled room (24°C) with free access to regular mice chow and water. Mice were randomly assigned to experimental groups, which were not involved in previous procedures. The mice were randomized into groups, which were treated as follows: saline (untreated growth control; n = 7), saline with 5.2844 mg/kg DPD (n = 4), 50 mg/kg daptomycin (DAP) (Novartis, Basel, Switzerland) (n = 11), 10 mg/kg 5-FU with and without 50 mg/kg DAP (each n = 8), 40 mg/kg 5-FU with or without 50 mg/kg DAP (n = 16 and n = 13, respectively), 40 mg/kg 5-FU with 1 μM DPD (n = 6), or 40 mg/kg 5-FU with 50 mg/kg DAP and 5.2844 mg/kg DPD (n = 8). DAP was given intraperitoneally immediately before implantation, and 5-FU and DPD was given immediately after implantation directly into the lumen of the cage. Afterwards, the cages were infected with 965 CFU of MRSA 43300. At 2 days post-infection, tissue cage fluid was collected, and the planktonic bacterial load was evaluated by plating on blood agar plates. In additional, mice were sacrificed and the tissue cages were explanted under aseptic conditions. The explanted tissue cages were washed twice with phosphate-buffered saline followed by 30 s vortexing, sonication for 3 min at 130 W and another 30 s vortexing to release adherent bacteria from the biofilm. Quantification of adherent bacteria was performed by plating appropriated dilutions on blood agar plates. To determine the prevention rate, the presence of any re-growth of MRSA was examined by further incubation of the cage in tryptic soy broth (TSB) for 48 h at 37°C. MRSA re-growth represents therapy failure, and the prevention rate was defined as the percentage of cages without growth in each treatment group.
Figure 6. Prophylactic effect of 5-FU against MRSA ATCC 43300 in a murine tissue cage infection model. Read-outs were obtained two days after infection with 965 CFU/cage and treatment with saline, saline with 1 μM AI-2, 50 mg/kg daptomycin (DAP), 10 mg/kg 5-FU with or without 50 mg/kg DAP, 40 mg/kg 5-FU with or without 50 mg/kg DAP or 40 mg/kg 5-FU with 50 mg/kg DAP and 5.2844 mg/kg DPD, as indicated below the panels. (A) Effect on planktonic MRSA 43300 two days post-infection. (B) Effect on adherent MRSA after explantation and sonication. (C) Prevention rate. Values in (A) and (B) are median ± IQR and those in (C) are % ([…]; **P < 0.001; ****P < 0.0001; ns, not significant). TEXT PRINTED IN THE PICTURE: (C) DAP: prevention rate (%): 18 | (C) DAP + 5-FU (10): prevention rate (%): 75 | (C) DAP + 5-FU (40): prevention rate (%): 94 | (C) DAP + 5-FU (40) + DPD: prevention rate (%): 12.5 DOUBTS OF THE COPYIST ABOUT THIS PICTURE: Panel C, DAP, prevention rate: 18 or 16 (small print) / Panel C, DAP + 5-FU (10), prevention rate: 75 or 76 (small print) / Panel C: which treatment belongs to each bar was read from the small +/- grid under the plot, so the column alignment is not fully certain

MRSA ATCC 43300 [4] = test: AI-2 activity of MRSA ATCC 43300; format: cell-based, Staphylococcus aureus; details: 1 μM DPD
Procedure: (§1) To confirm that the phenotype could be restored, 1 μM synthetic (S)-4,5-dihydroxy-2,3-pentanedione (DPD) (Biosynth Carbosynth, Staad, Switzerland) was used. After 3 h under static conditions at 37°C, the supernatant was analysed for AI-2 activity with V. harveyi (MM32).
Figure 4. Bioactivity of 5-FU against MRSA ATCC 43300. (A) Quorum sensing-associated AI-2 activity of MRSA 43300 grown for 3 h with different 5-FU concentrations. (B) Effect of different 5-FU concentrations on MRSA 43300 growth. (C) Interference with biofilm formation. (D) Effect on adherent MRSA 43300. Data points represent three biological replicates expressed as mean ± SD (**P < 0.01; ***P < 0.001; ****P < 0.0001).
Figure 5. Phenotype restoration with synthetic AI-2 supplementation. AI-2 activity of MRSA ATCC 43300 was evaluated with and without 1 μM DPD in the presence of different 5-FU concentrations. The dashed line indicates the baseline level of AI-2 of MRSA ATCC 43300 in the absence of 5-FU. Values represent 3 biological replicates expressed as mean ± SD (**P < 0.01; ****P < 0.0001).

SE 1457 wild type = test: AI-2 activity of SE 1457 wild type; format: cell-based, Staphylococcus epidermidis; details: 1 μM DPD with increasing 5-FU concentrations, 3 h
Procedure: as §1
Supplementary Figure 4 | Bioactivity of 5-FU against Staphylococcus epidermidis (SE). a) Quorum-sensing-associated AI-2 activity of SE 1457 grown for 3 h in the presence of different 5-FU concentrations (note log scale). b) Reversing effect of 1 µM DPD on the AI-2-reducing action of 5-FU (dashed line indicates AI-2 baseline of SE 1457 without 5-FU). Values represent 3 biological replicates expressed as mean ± SD (*, p < 0.05; **, p < 0.01).

SMILES	AI-2 production in HEK cells [1]	Clearance rate of daptomycin used alone (MRSA ATCC 43300 [2]) [%]	Effect on biofilm / adherent MRSA (MRSA ATCC 43300 [3])	Effect on planktonic MRSA infection (MRSA ATCC 43300 [3])	Baseline AI-2 activity of MRSA 43300 (MRSA ATCC 43300 [4])	AI-2 activity of 5-FU-challenged MRSA supplemented with DPD (MRSA ATCC 43300 [4]; MRSA ATCC 43300)	AI-2 activity of SE 1457 with DPD added to 5-FU (SE 1457 wild type)	Effect of DPD on prevention rate (MRSA ATCC 43300 [3]; DPD co-administered with 5-FU and DAP)
Nc1ncnc2c([C@@H]3N[C@H](CO)[C@@H](O)[C@H]3O)c[nH]c12 [immunicillin-A]	significantly decreased							
CCCCCCCCCC(=O)N[C@@H](Cc1c[nH]c2ccccc12)C(=O)N[C@H](CC(N)=O)C(=O)N[C@@H](CC(=O)O)C(=O)N[C@@H]1C(=O)NCC(=O)N[C@@H](CCCN)C(=O)N[C@@H](CC(=O)O)C(=O)N[C@H](C)C(=O)N[C@@H](CC(=O)O)C(=O)NCC(=O)N[C@H](CO)C(=O)N[C@@H]([C@H](C)CC(=O)O)C(=O)N[C@@H](CC(=O)c2ccccc2N)C(=O)O[C@@H]1C [DAP, daptomycin]		< 20	neither 5-FU nor DAP alone was sufficient to contain the infection	failed to clear planktonic MRSA infections				
CC(=O)C(=O)[C@@H](O)CO [DPD, (S)-4,5-dihydroxy-2,3-pentanedione]			reversed the 5-FU-dependent inhibition	reversed the 5-FU-dependent inhibition	little influence	counteracted the effect of 5-FU	AI-2 activity returned almost to baseline	decreased the prevention rate to the level observed for DAP monotherapy
